Measurements as given in patent US20230085307A1, “PYRIDAZINONE COMPOUND AND HERBICIDE” (NISSAN CHEMICAL CORPORATION, priority 2019, published 2023).

How the values were obtained:
[1] = tested on: wild oat; assay: Test Example 4: herbicidal effect by soil treatment (Table 19, symbol I); assay type: in vivo, wild oat (Avena fatua); conditions: amount of applied herbicide 320 g/ha
In short: (§1)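 Three weeks of greenhouse growth at 25° C. to 30° C. followed a uniform surface spray of water-diluted emulsion at a predetermined herbicide amount. Seeds had been sown beforehand under about 1.5 cm of sterilized diluvial soil. Grading followed criteria set out in an earlier test.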

[2] = tested on: southern crabgrass; assay: Test Example 4: herbicidal effect by soil treatment (Table 19, symbol F); assay type: in vivo, southern crabgrass (Digitaria ciliaris); conditions: amount of applied herbicide 320 g/ha
In short: as §1

[3] = tested on: lambsquarters; assay: Test Example 4: herbicidal effect by soil treatment (Table 19, symbol O); assay type: in vivo, lambsquarters (Chenopodium album); conditions: amount of applied herbicide 320 g/ha
In short: as §1

[4] = tested on: green foxtail; assay: Test Example 4: herbicidal effect by soil treatment (Table 19, symbol G); assay type: in vivo, green foxtail (Setaria viridis); conditions: amount of applied herbicide 320 g/ha
In short: as §1

[5] = tested on: lambsquarters; assay: Test Example 5: herbicidal effect by foliage application, plastic box (Table 20, symbol O); assay type: in vivo, lambsquarters (Chenopodium album); conditions: foliage application, 320 g/ha, three weeks after application
In short: (§2)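 Plants sown in sterilized diluvial soil and grown 14 days in a greenhouse at 25° C to 30° C, then sprayed on the foliage with the compound's emulsion diluted in water to a predetermined herbicide amount. Injury to weeds and crops scored three weeks after application on a visual rating scale.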

[6] = tested on: velvetleaf; assay: Test Example 5: herbicidal effect by foliage application, plastic box (Table 20, symbol M); assay type: in vivo, velvetleaf (Abutilon theophrasti); conditions: foliage application, 320 g/ha, three weeks after application
In short: as §2

[7] = tested on: blackgrass; assay: Test Example 5: herbicidal effect by foliage application, plastic box (Table 20, symbol J); assay type: in vivo, blackgrass (Alopecurus myosuroides); conditions: foliage application, 320 g/ha, three weeks after application
In short: as §2

[8] = tested on: redroot pigweed; assay: Test Example 5: herbicidal effect by foliage application, plastic box (Table 20, symbol N); assay type: in vivo, redroot pigweed (Amaranthus retroflexus); conditions: foliage application, 320 g/ha, three weeks after application
In short: as §2

[9] = tested on: blackgrass; assay: Test Example 4: herbicidal effect by soil treatment (Table 19, symbol J); assay type: in vivo, blackgrass (Alopecurus myosuroides); conditions: amount of applied herbicide 320 g/ha
In short: as §1

[10] = tested on: barnyard grass; assay: Test Example 5: herbicidal effect by foliage application, plastic box (Table 20, symbol H); assay type: in vivo, barnyard grass (Echinochloa crus-galli); conditions: foliage application, 320 g/ha, three weeks after application
In short: as §2

[11] = tested on: windgrass; assay: Test Example 4: herbicidal effect by soil treatment (Table 19, symbol L); assay type: in vivo, windgrass (Apera spica-venti); conditions: amount of applied herbicide 320 g/ha
In short: as §1

[12] = tested on: persian speedwell; assay: Test Example 5: herbicidal effect by foliage application, plastic box (Table 20, symbol R); assay type: in vivo, Persian speedwell (Veronica persica); conditions: foliage application, 320 g/ha, three weeks after application
In short: as §2

[13] = tested on: velvetleaf; assay: Test Example 4: herbicidal effect by soil treatment (Table 19, symbol M); assay type: in vivo, velvetleaf (Abutilon theophrasti); conditions: amount of applied herbicide 320 g/ha
In short: as §1

[14] = tested on: chickweed; assay: Test Example 4: herbicidal effect by soil treatment (Table 19, symbol P); assay type: in vivo, common chickweed (Stellaria media); conditions: amount of applied herbicide 320 g/ha
In short: as §1

[15] = tested on: redroot pigweed; assay: Test Example 4: herbicidal effect by soil treatment (Table 19, symbol N); assay type: in vivo, redroot pigweed (Amaranthus retroflexus); conditions: amount of applied herbicide 320 g/ha
In short: as §1

[16] = tested on: rice flat sedge; assay: Test Example 3: herbicidal effect by foliage application, Wagner pot (Table 18, symbol E); assay type: in vivo, rice flat sedge (Cyperus iria); conditions: 320 g/ha
In short: (§3)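 Plants were sown in alluvial soil held under 0.1–0.5 cm standing water and grown 14 days in a greenhouse at 25–30 °C. An emulsifiable formulation, water-diluted to the set dose, was then sprayed onto the foliage, and effects were scored three weeks later using previously defined criteria.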

[17] = tested on: wild oat; assay: Test Example 5: herbicidal effect by foliage application, plastic box (Table 20, symbol I); assay type: in vivo, wild oat (Avena fatua); conditions: foliage application, 320 g/ha, three weeks after application
In short: as §2

[18] = tested on: chickweed; assay: Test Example 5: herbicidal effect by foliage application, plastic box (Table 20, symbol P); assay type: in vivo, common chickweed (Stellaria media); conditions: foliage application, 320 g/ha, three weeks after application
In short: as §2

[19] = tested on: Italian ryegrass; assay: Test Example 5: herbicidal effect by foliage application, plastic box (Table 20, symbol K); assay type: in vivo, Italian ryegrass (Lolium multiflorum); conditions: foliage application, 320 g/ha, three weeks after application
In short: as §2

[20] = tested on: false cleavers; assay: Test Example 4: herbicidal effect by soil treatment (Table 19, symbol Q); assay type: in vivo, false cleavers (Galium spurium); conditions: amount of applied herbicide 320 g/ha
In short: as §1

[21] = tested on: southern crabgrass; assay: Test Example 5: herbicidal effect by foliage application, plastic box (Table 20, symbol F); assay type: in vivo, southern crabgrass (Digitaria ciliaris); conditions: foliage application, 320 g/ha, three weeks after application
In short: as §2

[22] = tested on: persian speedwell; assay: Test Example 4: herbicidal effect by soil treatment (Table 19, symbol R); assay type: in vivo, Persian speedwell (Veronica persica); conditions: amount of applied herbicide 320 g/ha
In short: as §1

[23] = tested on: Italian ryegrass; assay: Test Example 4: herbicidal effect by soil treatment (Table 19, symbol K); assay type: in vivo, Italian ryegrass (Lolium multiflorum); conditions: amount of applied herbicide 320 g/ha
In short: as §1

[24] = tested on: barnyard grass; assay: Test Example 4: herbicidal effect by soil treatment (Table 19, symbol H); assay type: in vivo, barnyard grass (Echinochloa crus-galli); conditions: amount of applied herbicide 320 g/ha
In short: as §1

[25] = tested on: false cleavers; assay: Test Example 5: herbicidal effect by foliage application, plastic box (Table 20, symbol Q); assay type: in vivo, false cleavers (Galium spurium); conditions: foliage application, 320 g/ha, three weeks after application
In short: as §2

[26] = tested on: green foxtail; assay: Test Example 5: herbicidal effect by foliage application, plastic box (Table 20, symbol G); assay type: in vivo, green foxtail (Setaria viridis); conditions: foliage application, 320 g/ha, three weeks after application
In short: as §2

[27] = tested on: barnyard grass; assay: Test Example 3: herbicidal effect by foliage application, Wagner pot (Table 18, symbol H); assay type: in vivo, barnyard grass (Echinochloa crus-galli); conditions: 320 g/ha
In short: as §3

[28] = tested on: windgrass; assay: Test Example 5: herbicidal effect by foliage application, plastic box (Table 20, symbol L); assay type: in vivo, windgrass (Apera spica-venti); conditions: foliage application, 320 g/ha, three weeks after application
In short: as §2

[29] = tested on: Chinese sprangletop; assay: Test Example 3: herbicidal effect by foliage application, Wagner pot (Table 18, symbol D); assay type: in vivo, chinese sprangletop (Leptochloa chinensis); conditions: 320 g/ha
In short: as §3

CCCC(=O)Oc1c(C)nn(C)c(=O)c1-c1c(-c2ccc(OC(C)C)cc2)sc2cc(Cl)ccc12 [3-042]
I: wild oat, herbicidal effect grade [1]: 0 (Herbicidal rate of 5% or less (almost no effect)) | F: southern crabgrass, herbicidal effect grade [2]: 0 (Herbicidal rate of 5% or less (almost no effect)) | O: lambsquarters, herbicidal effect grade [3]: 0 (Herbicidal rate of 5% or less (almost no effect)) | G: green foxtail, herbicidal effect grade [4]: 0 (Herbicidal rate of 5% or less (almost no effect)) | O: lambsquarters, herbicidal effect grade [5]: 3 (Herbicidal rate of 40% or more and less than 70%) | M: velvetleaf, herbicidal effect grade [6]: 3 (Herbicidal rate of 40% or more and less than 70%) | J: blackgrass, herbicidal effect grade [7]: 0 (Herbicidal rate of 5% or less (almost no effect)) | N: redroot pigweed, herbicidal effect grade [8]: 3 (Herbicidal rate of 40% or more and less than 70%) | J: blackgrass, herbicidal effect grade [9]: 0 (Herbicidal rate of 5% or less (almost no effect)) | H: barnyard grass, herbicidal effect grade [10]: 0 (Herbicidal rate of 5% or less (almost no effect)) | L: windgrass, herbicidal effect grade [11]: 0 (Herbicidal rate of 5% or less (almost no effect)) | R: persian speedwell, herbicidal effect grade [12]: 0 (Herbicidal rate of 5% or less (almost no effect)) | M: velvetleaf, herbicidal effect grade [13]: 0 (Herbicidal rate of 5% or less (almost no effect)) | P: chickweed, herbicidal effect grade [14]: 0 (Herbicidal rate of 5% or less (almost no effect)) | N: redroot pigweed, herbicidal effect grade [15]: 3 (Herbicidal rate of 40% or more and less than 70%) | herbicidal effect on rice flat sedge (E) [16]: 3 (Herbicidal rate of 40% or more and less than 70%) | I: wild oat, herbicidal effect grade [17]: 0 (Herbicidal rate of 5% or less (almost no effect)) | P: chickweed, herbicidal effect grade [18]: 0 (Herbicidal rate of 5% or less (almost no effect)) | K: Italian ryegrass, herbicidal effect grade [19]: 0 (Herbicidal rate of 5% or less (almost no effect)) | Q: false cleavers, herbicidal effect grade [20]: 0 (Herbicidal rate of 5% or less (almost no effect)) | F: southern crabgrass, herbicidal effect grade [21]: 0 (Herbicidal rate of 5% or less (almost no effect)) | R: persian speedwell, herbicidal effect grade [22]: 0 (Herbicidal rate of 5% or less (almost no effect)) | K: Italian ryegrass, herbicidal effect grade [23]: 0 (Herbicidal rate of 5% or less (almost no effect)) | H: barnyard grass, herbicidal effect grade [24]: 0 (Herbicidal rate of 5% or less (almost no effect)) | Q: false cleavers, herbicidal effect grade [25]: 0 (Herbicidal rate of 5% or less (almost no effect)) | G: green foxtail, herbicidal effect grade [26]: 0 (Herbicidal rate of 5% or less (almost no effect)) | herbicidal effect on barnyard grass (H) [27]: 4 (Herbicidal rate of 70% or more and less than 90%) | L: windgrass, herbicidal effect grade [28]: 0 (Herbicidal rate of 5% or less (almost no effect)) | herbicidal effect on Chinese sprangletop (D) [29]: 0 (Herbicidal rate of 5% or less (almost no effect))

COc1ccc(-c2sc3cc(C)ccc3c2-c2c(O)c(C)nn(C)c2=O)cc1 [3-051]
I: wild oat, herbicidal effect grade [1]: 0 (Herbicidal rate of 5% or less (almost no effect)) | F: southern crabgrass, herbicidal effect grade [2]: 0 (Herbicidal rate of 5% or less (almost no effect)) | O: lambsquarters, herbicidal effect grade [3]: 0 (Herbicidal rate of 5% or less (almost no effect)) | G: green foxtail, herbicidal effect grade [4]: 0 (Herbicidal rate of 5% or less (almost no effect)) | O: lambsquarters, herbicidal effect grade [5]: 0 (Herbicidal rate of 5% or less (almost no effect)) | M: velvetleaf, herbicidal effect grade [6]: 0 (Herbicidal rate of 5% or less (almost no effect)) | J: blackgrass, herbicidal effect grade [7]: 0 (Herbicidal rate of 5% or less (almost no effect)) | N: redroot pigweed, herbicidal effect grade [8]: 0 (Herbicidal rate of 5% or less (almost no effect)) | J: blackgrass, herbicidal effect grade [9]: 0 (Herbicidal rate of 5% or less (almost no effect)) | H: barnyard grass, herbicidal effect grade [10]: 0 (Herbicidal rate of 5% or less (almost no effect)) | L: windgrass, herbicidal effect grade [11]: 0 (Herbicidal rate of 5% or less (almost no effect)) | R: persian speedwell, herbicidal effect grade [12]: 5 (Herbicidal rate of 90% or more (almost completely withered)) | M: velvetleaf, herbicidal effect grade [13]: 0 (Herbicidal rate of 5% or less (almost no effect)) | P: chickweed, herbicidal effect grade [14]: 0 (Herbicidal rate of 5% or less (almost no effect)) | N: redroot pigweed, herbicidal effect grade [15]: 0 (Herbicidal rate of 5% or less (almost no effect)) | herbicidal effect on rice flat sedge (E) [16]: 3 (Herbicidal rate of 40% or more and less than 70%) | I: wild oat, herbicidal effect grade [17]: 0 (Herbicidal rate of 5% or less (almost no effect)) | P: chickweed, herbicidal effect grade [18]: 4 (Herbicidal rate of 70% or more and less than 90%) | K: Italian ryegrass, herbicidal effect grade [19]: 1 (Herbicidal rate of 5% or more and less than 20%) | Q: false cleavers, herbicidal effect grade [20]: 0 (Herbicidal rate of 5% or less (almost no effect)) | F: southern crabgrass, herbicidal effect grade [21]: 0 (Herbicidal rate of 5% or less (almost no effect)) | R: persian speedwell, herbicidal effect grade [22]: 4 (Herbicidal rate of 70% or more and less than 90%) | K: Italian ryegrass, herbicidal effect grade [23]: 0 (Herbicidal rate of 5% or less (almost no effect)) | H: barnyard grass, herbicidal effect grade [24]: 0 (Herbicidal rate of 5% or less (almost no effect)) | Q: false cleavers, herbicidal effect grade [25]: 0 (Herbicidal rate of 5% or less (almost no effect)) | G: green foxtail, herbicidal effect grade [26]: 0 (Herbicidal rate of 5% or less (almost no effect)) | herbicidal effect on barnyard grass (H) [27]: 1 (Herbicidal rate of 5% or more and less than 20%) | L: windgrass, herbicidal effect grade [28]: 0 (Herbicidal rate of 5% or less (almost no effect)) | herbicidal effect on Chinese sprangletop (D) [29]: 0 (Herbicidal rate of 5% or less (almost no effect))
